The values below come from patent US20260226043A1, “POLYMORPHS OF THE MALEIC ACID SALT OF LINAPRAZAN GLURATE” (Cinclus Pharma Holding AB (publ), priority 2023, published 2026).

Entries after “also recorded” stand apart in the source; their conditions may differ. Like-named read-outs stand apart in the source and are kept apart here. Marks after values point to notes of the source that are not given here.

Series [1] in a line: Gravimetric/dynamic vapour sorption (GVS/DVS).
Procedure: Analyses were performed on an SMS DVS-1 instrument. A few mg of the substance was added into an Al pan and exposed to stepwise RH changes during two consecutive cycles according to 20-80-0-90-0%, in steps of 10% RH, using open loop mode. The experiments were performed using a gas flow rate of 200 mL/min and at 25° C. The dm/dt criteria applied was 0.001 weight-%/min during a 5-minute window, with a maximum allowed time of 360 minutes and a minimum allowed time of 10 minutes for all steps.
The hygroscopicity of Form 1 (obtained from the synthesis described below in example 1) was investigated using GVS at 25° C.
A short description of series [2]: Slurry experiments (solid form stability, XRPD). It is filed as physicochemical. The procedure: Slurry experiments were performed in various solvents. The samples were slurried for different periods of time depending on temperature. […] The water-containing slurries were performed to investigate possible hydrate formation.
Details of all slurry experiments performed, including solvent(s) used, total concentration and final form by XRPD, are given in Table 1.
Approximately 30 mg of linaprazan glurate maleic acid salt was used for each experiment, together with 20 different solvents (pure and binary solvents) at room temperature, at 4° C., at 40° C., and at 60° C., unless indicated otherwise. […] The solid phase was isolated and analysed with XRPD. The sample run at fridge temperature (ca 4° C.) was analysed after 26 and 53 days of slurry. The samples run at RT were analysed after 26 days of slurry. The samples run at 40° C. were analysed after 6 and 12 days of slurry. The samples run at 60° C. were analysed after 1 day of slurry.

A short description of series [3]: Thermogravimetric analysis (TGA).
Procedure: Analyses were performed on a PerkinElmer TGA7 instrument. A few mg of sample was gently charged into open Pt-pans and analysed by weight in a flow of dry nitrogen gas (20 mL/min), to ensure an inert atmosphere. The sample was scanned from 25 to 200° C. using a continuous scan speed of 10° C./min. The weight loss was calculated from 25° C. up to 145° C.
The conditions of series [4]: cited from earlier work.
The conditions of series [5]: free base Form A; cited from earlier work.
A further series has as its system intragastric acidity. The following applies: cited from earlier work.
The conditions of series [6]: cited from earlier work. This is another data set of the same source.
For a further series, the system named is gastric acid. The following applies: Phase I and II studies; cited from earlier work.
Another series in a line: clinical. The following applies: human, in vivo. The procedure:
Linaprazan glurate is a prodrug of linaprazan, which was disclosed in WO 99/55706 and previously studied in Phase I and II studies. […] A clinical Phase I study has shown that administration of a single dose of linaprazan glurate can maintain the intragastric acidity above pH 4 for 24 hours. Linaprazan glurate is therefore tailored for patients with severe erosive gastroesophageal reflux disease (eGERD).
It is estimated that this requires a minimal plasma concentration (Cmin) of linaprazan of at least about 240 nmol/L after 22 hours. At such doses, a once daily oral administration of the formulation would be sufficient. In some embodiments, therefore, a single unit dose of a pharmaceutical composition of linaprazan glurate provides a Cmin of linaprazan in a human of at least about 240 nmol/L after 22 hours following oral administration of the pharmaceutical composition to said human. In other embodiments, a daily administration of two unit doses of a pharmaceutical composition of linaprazan glurate provides a Cmin of linaprazan in a human of at least about 240 nmol/L after 10 hours following oral administration of the last unit dose of the pharmaceutical composition to said human.

The conditions of series [7]: Phase I and II studies; cited from earlier work.

Take `Cc1cccc(C)c1CNc1cc(C(=O)NCCOC(=O)CCCC(=O)O)cn2c(C)c(C)nc12.O=C(O)/C=C\C(=O)O` [Form 1, maleic acid salt of 5-{2-[({8-[(2,6-dimethylbenzyl)amino]-2,3-dimethylimidazo[1,2-a]pyridine-6-yl}carbonyl)-amino]ethoxy}-5-oxopentanoic acid]: in series [1] (GVS/DVS at 25° C.), the hygroscopicity classification result was “slightly hygroscopic; also recorded: low hygroscopicity”. In addition, in series [1] (at 80% RH, dynamic vapour sorption), the water uptake entry is on record as “about 0.45%”. In [1] (humidity range 0 to 80% RH, GVS at 25° C.), this compound had an uptake of water of around 0.4%. The Solid state form entry was “Form 1” in [2] (slurry in 1,4-dioxane, 63 mg/mL, 40° C., 6 and 12 days); “Form 1” in [2] (slurry in 1,4-dioxane:DMA 9:1, 103 mg/mL, RT, 26 days); “Form 1 + Crystalline” in [2] (slurry in 2-propanol, 56 mg/mL, 40° C., 6 and 12 days); “Form 1” in series [2] (slurry in 2-propanol:DMA 9:1, 91 mg/mL, RT, 26 days); “Crystalline base form” in series [2] (slurry in DMA, 890 mg/mL, RT, 26 days); “Form 1 + Crystalline” in series [2] (slurry in DMA, 1369 mg/mL, 40° C., 6 and 12 days). For the same compound, the Solid state form result is recorded as “Form 1” in series [2] (slurry in EtOAc, 36 mg/mL, 40° C., 6 and 12 days); “Form 1 + Crystalline” in series [2] (slurry in EtOAc:DMA 9:1, 89 mg/mL, RT, 26 days); “Form 1 + Crystalline” in series [2] (slurry in EtOH, 61 mg/mL, 40° C., 6 and 12 days); “Form 1” in series [2] (slurry in EtOH, 61 mg/mL, RT, 26 days); “Form 1” in [2] (slurry in MIBK, 53 mg/mL, 40° C., 6 and 12 days); “Form 1” in [2] (slurry in MIBK, 62 mg/mL, 60° C., 1 day). Moreover, the Solid state form result in series [2] (slurry in MIBK:DMA 9:1, 84 mg/mL, RT, 26 days) is “Form 1”; in series [2] (slurry in MTBE, 68 mg/mL, 40° C., 6 and 12 days) it was “Form 1 + MTBE solvate”; in series [2] (slurry in MTBE:DMA 9:1, 99 mg/mL, RT, 26 days, analysed also after 53 days) it was “Form 1 + MTBE solvate*”; in series [2] (slurry in MeCN, 52 mg/mL, 40° C., 6 and 12 days) it was “Form 1”; in series [2] (slurry in MeCN, 63 mg/mL, 60° C., 1 day), “Form 1”; in series [2] (slurry in MeCN:DMA 9:1, 85 mg/mL, RT, 26 days), “Form 1 + Crystalline”. In addition, the Solid state form result was “Crystalline base form” in [2] (slurry in MeOH, 51 mg/mL, 40° C., 6 and 12 days); “Form 1 + Crystalline” in series [2] (slurry in MeOH, 55 mg/mL, RT, 26 days); “Form 1 + Crystalline” in series [2] (slurry in MeOH:water 4:1, 52 mg/mL, ca 4° C., 26 and 53 days); “Crystalline base form” in series [2] (slurry in MeOH:water 4:1, 58 mg/mL, RT, 26 days); “Form 1 + Crystalline” in [2] (slurry in THF, 53 mg/mL, 40° C., 6 and 12 days); “Form 1” in series [2] (slurry in THF, 63 mg/mL, 60° C., 1 day). In addition, the Solid state form entry in series [2] (slurry in THF:DMA 9:1, 93 mg/mL, RT, 26 days) is “Form 1 + Crystalline”; in series [2] (slurry in acetone, 29 mg/mL, RT, analysed after 21 days), “Form 1**”; in series [2] (slurry in benzyl alcohol, 332 mg/mL, RT, analysed after 21 days) it was “Form 1**”. In addition, in series [3], the “weight loss (TGA)” value worked out at 0.17%.

Consider `Cc1cccc(C)c1CNc1cc(C(=O)NCCOC(=O)CCCC(=O)O)cn2c(C)c(C)nc12` [Form A], for which the solubility in water result in [4] (pH 1) is recorded as “only slightly soluble”. Besides, the solubility in water entry in [4] (pH 6.8) is on record as “practically insoluble”. For the same compound, in series [5], the hygroscopicity result is “very low hygroscopicity”; the “physical and chemical stability” value is “good physical and chemical stability”.

Regarding `Cc1cccc(C)c1CNc1cc(C(=O)NCCOC(=O)CCCC(=O)O)cn2c(C)c(C)nc12` [linaprazan glurate, 5-{2-[({8-[(2,6-dimethylbenzyl)amino]-2,3-dimethylimidazo[1,2-a]pyridine-6-yl}carbonyl)-amino]ethoxy}-5-oxopentanoic acid], in the series on intragastric acidity (compared to linaprazan), the “control of the gastric acid production” value is on record as “total control of the gastric acid production for a longer time”. Moreover, the “intragastric acidity (pH) maintained” value with intragastric acidity (single dose, maintained for 24 hours, clinical Phase I study) is on record as above 4. Further, in series [6] (after administration of linaprazan glurate), the “plasma concentration of linaprazan glurate” value is “only very low and difficult to determine”. For the same compound, the “half-life in the body” value in series [6] (compared to linaprazan) is “longer half-life in the body”. In series [6] (following absorption into the blood stream), the metabolism entry was “quickly metabolized into linaprazan”.

As for `Cc1cccc(C)c1CNc1cc(C(=O)NCCO)cn2c(C)c(C)nc12` [linaprazan], in the series with gastric acid, the “duration of acid inhibition” value is “too short duration of acid inhibition”; the “onset of action / effect” value was “fast onset of action and full effect at first dose”. In addition, the concentration at 22 h in the series “clinical” is at least 240 nM. Also, in series [7], the “elimination from the body” value is recorded as “quickly eliminated from the body” and the tolerability entry is “well tolerated”.
